Results: patent publication US20230416237A1, “AMIDE COMPOUND, PHARMACEUTICAL COMPOSITION AND USE THEREOF” (SHENZHEN BO LI JIAN MEDICINE CO., LTD., priority 2020, published 2023)
pIC50: −log10 of the molar value.

Columns and labels:
JAK2 [1] = biological target: T1, JAK2 (Homo sapiens (Human), UniProt O60674); experiment: JAK2 inhibitory activity, mobility shift assay, 1 mM ATP; format: biochemical
Protocol: (§1) The JAK1 inhibitory activity and the JAK2 inhibitory activity of the amide compounds provided in the above examples were tested by the method below.
(§2) Specific steps are described below. • 1. A 1× Kinase buffer was formulated. • 2. Concentration gradients of the compound were formulated: a test compound with an initial concentration of 10000 nM (JAK1) or 30000 nM (JAK2) was diluted in a 384-well plate to a 100% DMSO solution with a 100-fold final concentration, wherein the compound was diluted by a fold of 3 to 10 concentrations. 250 nL of the compound with the 100-fold final concentration was transferred with a dispenser Echo 550 to the target plate. • 3. A kinase solution with a 2.5-fold final concentration was prepared with the 1× Kinase buffer. • 4. […] The plate was centrifuged at 1000 rpm for 30 s, shaken and uniformly mixed, and incubated for 10 min at room temperature. • 6. A mixed solution of ATP (the final concentration of ATP=1 mM) and Kinase substrate with a 5/3-fold final concentration was formulated with the 1× Kinase buffer. • 7. 15 μL of the mixed solution of ATP and the substrate with the 5/3-fold final concentration was added to initiate the reaction. • 8. The 384-well plate was centrifuged at 1000 rpm for 30 s, shaken and uniformly mixed, and incubated for respective times at room temperature. • 9. The kinase reaction was stopped by adding 30 μL of a detection termination solution, and the plate was centrifuged at 1000 rpm for 30 s and shaken and uniformly mixed. • 10. The conversion rate was read with Caliper EZ Reader and the half maximal inhibitory concentration (IC50) was calculated.
Target sequence in this assay (O60674 826-1132): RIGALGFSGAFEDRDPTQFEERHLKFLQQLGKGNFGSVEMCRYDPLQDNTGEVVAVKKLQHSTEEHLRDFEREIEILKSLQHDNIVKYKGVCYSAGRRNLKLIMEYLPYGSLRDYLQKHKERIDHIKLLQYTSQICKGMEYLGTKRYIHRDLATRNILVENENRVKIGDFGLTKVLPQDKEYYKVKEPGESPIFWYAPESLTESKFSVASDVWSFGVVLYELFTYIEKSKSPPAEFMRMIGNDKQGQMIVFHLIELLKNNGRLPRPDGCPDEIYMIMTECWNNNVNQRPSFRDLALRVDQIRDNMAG

JAK1 = JAK1 (Homo sapiens (Human), UniProt P23458); experiment: JAK1 inhibitory activity, mobility shift assay, 1 mM ATP; format: biochemical; details: for IC50: 1 mM ATP; for JAK2/JAK1 Multiple selectivity: ratio of JAK2 IC50 to JAK1 IC50, 1 mM ATP
Protocol: as §1, §2

[2] = system: IFNα-induced pSTAT3 (JAK1/TYK2 signaling pathway); experiment: Mouse whole blood assay, inhibition of IFNα-induced pSTAT3; format: cell-based; details: C57BL/6J mouse blood, IFNα 20000 IU/mL
Protocol: Cytokine IFNα can induce STAT3 phosphorylation (pSTAT3) through the JAK1/TYK2 signaling pathway. […] IFNα used was Recombinant mouse IFNα (Miltenyi #130-093-131), the pSTAT3 antibody used was Alexa Fluor 488 anti-STAT3 Phospho (Tyr705) Antibody (Biolegend #651106), and the CD3 antibody used was Brilliant Violet 421 anti-mouse CD3 Antibody (Biolegend #100228). The cytokine dilution buffer was PBS+0.1% BSA, which was filtered and stored at […]. The FACS buffer was PBS+0.2% BSA+1 mM EDTA. Specific steps are described below. • 1. C57BL/6J mouse blood was added to a 96-well plate, with 90 μL per well. • 2. Each well was added with 5 μL of the compound ([…]), uniformly mixed and incubated at 37° C. for 60 min in an incubator. • 3. Each well was added with 5 μL of 20×IFNα (with a working concentration of 20000 IU/mL) as the stimulation factor, uniformly mixed and incubated at 37° C. for 30 min. • 4. Blood was transferred to a 96-deep-well plate, and each well was added with 1 mL of Lyse fix buffer (1×), uniformly mixed and incubated at 37° C. for 10 min. • 5. The plate was centrifuged at 600 g for 5 min and the supernatant was discarded. 1 mL of PBS was added to each well and centrifuged at 600 g for 5 min and the supernatant was discarded, which were repeated twice. Each well was added with 100 μL of the anti-mCD3 antibody (diluted by a fold of 80 with the cytokine dilution buffer), uniformly mixed and incubated at 4° C. for 30 min. • 6. 1 mL of PBS was added to each well and centrifuged at 600 g for 5 min and the supernatant was discarded, which were repeated twice. Each well was added with 1000 μL of Perm III, uniformly mixed and incubated at 4° C. for 30 min. • 7. The plate was centrifuged at 600 g for 5 min and the supernatant was discarded. 1 mL of PBS was added to each well and centrifuged at 600 g for 5 min and the supernatant was discarded, which were repeated twice. • 8. Each well was added with 100 μL of the anti-pSTAT3 antibody (diluted by a fold of 50 with the FACS buffer), uniformly mixed and incubated at 25° C. for 40 min. • 9. 1 mL of the FACS buffer was added to each well and centrifuged at 600 g for 5 min and the supernatant was discarded. 200 μL of the FACS buffer was added to each well and resuspended. All samples were transferred to a 96-well tip-bottom plate and uploaded. • 10. Data were collected and analyzed.

JAK2 [3] = biological target: T1, JAK2; details: selective JAK1 inhibitors, literature; cited from earlier work
Target sequence in this assay (O60674 whole entry, species assumed): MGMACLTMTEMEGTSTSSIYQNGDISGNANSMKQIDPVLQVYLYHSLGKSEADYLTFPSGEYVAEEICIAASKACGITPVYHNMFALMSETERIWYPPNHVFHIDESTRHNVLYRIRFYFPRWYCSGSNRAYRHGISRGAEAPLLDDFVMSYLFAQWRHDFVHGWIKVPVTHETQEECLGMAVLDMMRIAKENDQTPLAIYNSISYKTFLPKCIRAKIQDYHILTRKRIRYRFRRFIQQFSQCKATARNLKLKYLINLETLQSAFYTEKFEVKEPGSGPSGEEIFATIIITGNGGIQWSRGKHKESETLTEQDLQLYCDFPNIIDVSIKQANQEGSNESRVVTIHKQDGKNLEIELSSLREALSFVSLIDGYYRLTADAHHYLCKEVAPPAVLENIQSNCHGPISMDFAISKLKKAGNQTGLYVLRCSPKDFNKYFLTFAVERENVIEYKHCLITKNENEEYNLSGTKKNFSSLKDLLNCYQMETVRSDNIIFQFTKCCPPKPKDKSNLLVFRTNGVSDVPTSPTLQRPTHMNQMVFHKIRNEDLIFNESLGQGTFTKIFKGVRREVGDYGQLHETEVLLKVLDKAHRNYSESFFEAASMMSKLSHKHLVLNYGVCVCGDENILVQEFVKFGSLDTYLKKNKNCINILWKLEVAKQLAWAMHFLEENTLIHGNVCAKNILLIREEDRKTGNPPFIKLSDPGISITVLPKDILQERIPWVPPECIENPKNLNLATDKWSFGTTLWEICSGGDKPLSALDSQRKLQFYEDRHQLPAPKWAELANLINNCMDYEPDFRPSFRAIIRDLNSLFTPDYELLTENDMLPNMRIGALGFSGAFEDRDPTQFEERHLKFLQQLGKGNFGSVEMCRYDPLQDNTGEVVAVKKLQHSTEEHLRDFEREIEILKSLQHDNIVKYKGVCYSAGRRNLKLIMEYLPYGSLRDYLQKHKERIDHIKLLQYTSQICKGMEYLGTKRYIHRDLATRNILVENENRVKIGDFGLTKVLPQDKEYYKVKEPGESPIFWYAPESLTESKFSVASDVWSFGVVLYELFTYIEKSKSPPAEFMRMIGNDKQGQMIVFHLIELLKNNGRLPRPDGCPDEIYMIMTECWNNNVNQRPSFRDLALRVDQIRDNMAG

JAK1, sequence (P23458 850-1154): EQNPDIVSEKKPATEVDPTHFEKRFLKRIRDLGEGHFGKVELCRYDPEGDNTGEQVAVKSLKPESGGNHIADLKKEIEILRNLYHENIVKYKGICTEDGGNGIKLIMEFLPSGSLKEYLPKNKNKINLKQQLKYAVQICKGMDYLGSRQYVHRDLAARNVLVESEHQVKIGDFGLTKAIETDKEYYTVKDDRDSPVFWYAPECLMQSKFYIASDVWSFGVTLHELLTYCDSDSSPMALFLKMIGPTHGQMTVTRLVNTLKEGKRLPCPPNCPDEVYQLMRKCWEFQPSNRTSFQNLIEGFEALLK

IC50 (JAK2 [1]; Table 7) [nM] | IC50 (JAK2 [1]; Table 8) [nM] | IC50 (JAK1; Table 7) [nM] | IC50 (JAK1; Table 8) [nM] | JAK2/JAK1 Multiple selectivity (JAK1) | pIC50 [2] | SMILES | selectivity for JAK2 in kinase assays (JAK2 [3])
4020 | 4020 | 56 | 56 | 72 | 6.76 | COc1nn(C)cc1Nc1nccc(-c2c[nH]c3c(NC(=O)[C@@H](C)N4CCN(C)CC4)cccc23)n1 [AZD4205, reference compound] | –
5160 | 5160 | 33 | 33 | 156 | 6.90 | COc1nn(C)cc1Nc1ncc(C)c(-c2c[nH]c3c(NC(=O)[C@H]4C[C@H](F)CN4[C@@H]4CCN(C)C4)cccc23)n1 [Example 30, (2R,3′R,4S)-4-fluoro-N-(3-(2-((3-methoxy-1-methyl-1H-pyrazol-4-yl)amino)-5-methylpyrimidin-4-yl)-1H-indol-7-yl)-1′-methyl-[1,3′-bipyrrolidine]-2-carboxamide] | –
3880 | 3880 | 26 | 26 | 149 | 6.92 | COc1nn(C)cc1Nc1ncc(C)c(-c2c[nH]c3c(NC(=O)[C@H]4CC(F)(F)CN4[C@@H]4CCN(C)C4)cccc23)n1 [Example 32, (2R,3′R)-4,4-difluoro-N-(3-(2-((3-methoxy-1-methyl-1H-pyrazol-4-yl)amino)-5-methylpyrimidin-4-yl)-1H-indol-7-yl)-1′-methyl-[1,3′-bipyrrolidine]-2-carboxamide] | –
12000 | – | 91 | – | – | – | COc1nn(C)cc1Nc1nccc(-c2c[nH]c3c(NC(=O)[C@H]4CC(F)(F)CN4[C@@H]4CCN(C)C4)cccc23)n1 [Example 36, (2R,3′R)-4,4-difluoro-N-(3-(2-((3-methoxy-1-methyl-1H-pyrazol-4-yl)amino)pyrimidin-4-yl)-1H-indol-7-yl)-1′-methyl-[1,3′-bipyrrolidine]-2-carboxamide] | –
10800 | – | 216 | – | – | – | COc1nn(C)cc1Nc1nccc(-c2c[nH]c3c(NC(=O)[C@H]4CC(F)(F)CN4[C@H]4CCN(C)C4)cccc23)n1 [Example 37, (2R,3′S)-4,4-difluoro-N-(3-(2-((3-methoxy-1-methyl-1H-pyrazol-4-yl)amino)pyrimidin-4-yl)-1H-indol-7-yl)-1′-methyl-[1,3′-bipyrrolidine]-2-carboxamide] | –
5280 | – | 34 | – | – | – | COc1nn(C)cc1Nc1ncc(F)c(-c2c[nH]c3c(NC(=O)[C@H]4C[C@H](F)CN4[C@@H]4CCN(C)C4)cccc23)n1 [Example 38, (2R,3′R,4S)-4-fluoro-N-(3-(5-fluoro-2-((3-methoxy-1-methyl-1H-pyrazol-4-yl)amino)pyrimidin-4-yl)-1H-indol-7-yl)-1′-methyl-[1,3′-bipyrrolidine]-2-carboxamide] | –
4850 | – | 50 | – | – | – | COc1nn(C)cc1Nc1ncc(F)c(-c2c[nH]c3c(NC(=O)[C@H]4C[C@H](F)CN4[C@H]4CCN(C)C4)cccc23)n1 [Example 39, (2R,3′S,4S)-4-fluoro-N-(3-(5-fluoro-2-((3-methoxy-1-methyl-1H-pyrazol-4-yl)amino)pyrimidin-4-yl)-1H-indol-7-yl)-1′-methyl-[1,3′-bipyrrolidine]-2-carboxamide] | –
24300 | – | 259 | – | – | – | COc1nn(C)cc1Nc1nccc(-c2c[nH]c3c(NC(=O)[C@H]4C[C@H](F)CN4C4CCN(C)CC4)cccc23)n1 [Example 40, (2R,4S)-4-fluoro-N-(3-(2-((3-methoxy-1-methyl-1H-pyrazol-4-yl)amino)pyrimidin-4-yl)-1H-indol-7-yl)-1-(1-methylpiperidin-4-yl)pyrrolidine-2-carboxamide] | –
– | – | – | – | – | 6.69 | CCCS(=O)(=O)N[C@H]1C[C@@H](N(C)c2ncnc3[nH]ccc23)C1 [abrocitinib, reference compound] | –
– | – | – | – | – | – | O=C(Nc1nc2cccc(-c3ccc(CN4CCS(=O)(=O)CC4)cc3)n2n1)C1CC1 [filgotinib] | less than three
– | – | – | – | – | – | CC[C@@H]1CN(C(=O)NCC(F)(F)F)C[C@@H]1c1cnc2cnc3[nH]ccc3n12 [upadacitinib] | less than three
